Structures are written as SMILES.

For 16 compounds, IC50 results are on record in patent publication US20260347373A1, “HETEROCYCLIC COMPOUNDS, COMPOSITIONS THEREOF, AND METHODS OF TREATMENT THEREWITH” (BeOne Medicines I GmbH, priority 2023, published 2026).

Assay [1] concerns the target WT KRAS (Homo sapiens, UniProt P01116). The assay can be described thus: KRAS WT Probe Displacement Assay (TR-FRET, GDP-loaded). As to conditions: KRAS WT, read-out: KRAS^WT Probe Displacement Assay IC50. The assay is classed as binding. The source says:
(§1) The synthetic routes of probe 1 and 2, which have been disclosed in PCT/CN2022/070676, are hereby incorporated herein.

For assay [2], the target named is KRAS G12D (Homo sapiens, UniProt P01116, G12D). The assay can be described thus: KRAS G12D Probe Displacement Assay (TR-FRET, GDP-loaded). The assay is classed as binding. As to conditions: KRAS G12D, read-out: KRAS^G12D Probe Displacement Assay IC50.
Sequence of KRAS G12D (P01116 1-188 isoform P01116-2 G12D): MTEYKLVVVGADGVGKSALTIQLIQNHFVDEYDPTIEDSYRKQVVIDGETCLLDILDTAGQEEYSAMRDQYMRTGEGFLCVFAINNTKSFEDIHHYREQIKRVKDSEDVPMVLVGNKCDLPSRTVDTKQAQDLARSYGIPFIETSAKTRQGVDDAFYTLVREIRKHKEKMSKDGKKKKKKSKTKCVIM
Description: as §1
Background: Time-resolved FRET reads energy transfer from a long-lived donor to a nearby acceptor.

Sequence of WT KRAS (P01116 1-188 isoform P01116-2): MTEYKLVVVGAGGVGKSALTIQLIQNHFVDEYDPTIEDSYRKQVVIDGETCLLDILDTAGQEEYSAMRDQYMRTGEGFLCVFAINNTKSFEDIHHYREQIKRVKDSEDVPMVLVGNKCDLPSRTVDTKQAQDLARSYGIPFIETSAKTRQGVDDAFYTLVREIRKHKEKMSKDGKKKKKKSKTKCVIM

For the compound `Cc1cc(N)cc(-c2nc3c4c(nc(OCC5(CN6C[C@@H]7C[C@@H]7[C@H]6CO)CC5)nc4c2F)N2C[C@H]4CC[C@H](N4)[C@H]2CCO3)c1C(F)(F)F` [Example 97, ((1S,2S,5R)-3-((1-((((6aR,7S,10R)-2-(5-amino-3-methyl-2-(trifluoromethyl)phenyl)-1-fluoro-5,6,6a,7,8,9,10,11-octahydro-4-oxa-3,11a,12,14,15-pentaaza-7,10-methanocyclohepta [4,5]cycloocta,[1,2,3-de]naphthalen-13-yl)oxy)methyl)cyclopropyl)methyl)-3-azabicyclo [3.1.0]hexan-2-yl) methanol], the concentration for half-maximal inhibition (IC50) in assay [1] is 3 to 1000 nM; in assay [2], less than 0.3 nM.
Taken in the same sequence, the figures for `Cc1cc(N)cc(-c2nc3c4c(nc(OC[C@@H]5COC[C@H]5N(C)C)nc4c2F)N2C[C@H]4CC[C@H](N4)[C@H]2CCO3)c1C(F)(F)F` [Example 13, (3S,4S)-4-((((6aR,7S,10R)-2-(5-amino-3-methyl-2-(trifluoromethyl)phenyl)-1-fluoro-5,6,6a,7,8,9,10,11-octahydro-4-oxa-3,11a,12,14,15-pentaaza-7,10-methanocyclohepta[4,5]cycloocta [1,2,3-de]naphthalen-13-yl)oxy)methyl)-N,N-dimethyltetrahydrofuran-3-amine] were 3 to 1000 nM and less than 0.3 nM.
Taken in the same sequence, the figures for `CO[C@H]1CCN(CC2(COc3nc4c5c(nc(-c6cc(N)cc(C)c6C(F)(F)F)c(F)c5n3)OCC[C@@H]3[C@@H]5CC[C@H](CN43)N5)CC2)C[C@H]1F` [Example 185, 3-((6aR,7S,10R)-1-fluoro-13-((1-(((3R,4S)-3-fluoro-4-methoxypiperidin-1-yl)methyl)cyclopropyl)methoxy)-5,6,6a,7,8,9,10,11-octahydro-4-oxa-3,11a,12,14,15-pentaaza-7,10-methanocyclohepta[4,5]cycloocta[1,2,3-de]naphthalen-2-yl)-5-methyl-4-(trifluoromethyl)aniline] were 3 to 1000 nM and less than 0.3 nM.
Taken in the same sequence, the figures for `[2H]C([2H])([2H])N1CCC(C(F)F)C(C)(C([2H])([2H])Oc2nc3c4c(nc(-c5cc(N)cc(C)c5C(F)(F)F)c(F)c4n2)OCC[C@@H]2[C@@H]4CC[C@H](CN32)N4)C1` (single isomer, unassigned) [Example 241] were 0.3 to 3 nM and less than 0.3 nM.
On to `Cc1cc(N)cc(-c2nc3c4c(nc(OCC5(CN6CCOC7(CC7)C6)CC5)nc4c2F)N2C[C@H]4CC[C@H](N4)[C@H]2CCO3)c1C(F)(F)F` [Example 120, 3-((6aR,7S,10R)-13-((1-((4-oxa-7-azaspiro[2.5]octan-7-yl)methyl)cyclopropyl)methoxy)-1-fluoro-5,6,6a,7,8,9,10,11-octahydro-4-oxa-3,11a,12,14,15-pentaaza[7,10]methanocyclohepta [4,5]cycloocta[1,2,3-de]naphthalen-2-yl)-5-methyl-4-(trifluoromethyl)aniline], for which the 50% inhibitory concentration (IC50) was 0.3 to 3 nM in assay [1] and less than 0.3 nM in assay [2].
With `[2H]C([2H])([2H])N1CC[C@H](OC)[C@H]1[C@H](C)Oc1nc2c3c(nc(-c4cc(N)cc(C)c4C(F)(F)F)c(F)c3n1)OCC[C@@H]1[C@@H]3CC[C@H](CN21)N3` [Example 142, 3-((6aR,7S,10R)-1-fluoro-13-((S)-1-((2R,3S)-3-methoxy-1-(methyl-d3)pyrrolidin-2-yl)ethoxy)-5,6,6a,7,8,9,10,11-octahydro-4-oxa-3,11a,12,14,15-pentaaza-7,10-methano-cyclohepta[4,5]cycloocta [1,2,3-de]naphthalen-2-yl)-5-methyl-4-(trifluoromethyl)aniline], the half-maximal inhibitory concentration (IC50) in assay [1] was 3 to 1000 nM; in assay [2], less than 0.3 nM.
Taken in the same sequence, the figures for `Cc1cc(N)cc(-c2nc3c4c(nc(OC[C@@]5(C)CCCN(C6CCOCC6)C5)nc4c2F)N2C[C@H]4CC[C@H](N4)[C@H]2CCO3)c1C(F)(F)F` [Example 195, 3-((6aR,7S,10R)-1-fluoro-13-(((S)-3-methyl-1-(tetrahydro-2H-pyran-4-yl)piperidin-3-yl)methoxy)-5,6,6a,7,8,9,10,11-octahydro-4-oxa-3,11a,12,14,15-pentaaza-7,10-methanocyclohepta[4,5]cycloocta[1,2,3-de]naphthalen-2-yl)-5-methyl-4-(trifluoromethyl)aniline] were 0.3 to 3 nM and less than 0.3 nM.
Taken in the same sequence, the figures for `Cc1cc(N)cc(-c2nc3c4c(nc(OCC5(C)CC(F)CN(C)C5)nc4c2F)N2C[C@H]4CC[C@H](N4)[C@H]2CCO3)c1C(F)(F)F` (stereo partly drawn) [Example 5, 3-((6aR,7S,10R)-1-fluoro-13-((5-fluoro-1,3-dimethylpiperidin-3-yl)methoxy)-5,6,6a,7,8,9,10,11-octahydro-4-oxa-3,11a,12,14,15-pentaaza-7,10-methanocyclohepta[4,5]cycloocta [1,2,3-de]naphthalen-2-yl)-5-methyl-4-(trifluoromethyl)aniline] were 3 to 1000 nM and less than 0.3 nM.
Taken in the same sequence, the figures for `C=C1CN2C[C@H](F)C[C@@]2(COc2nc3c4c(nc(-c5cc(N)cc(C)c5C(F)(F)F)c(F)c4n2)OCC[C@@H]2[C@@H]4CC[C@H](CN32)N4)C1` [Example 208, 3-((6aR,7S,10R)-1-fluoro-13-(((2R,7aR)-2-fluoro-6-methylenetetrahydro-1H-pyrrolizin-7a(5H)-yl)methoxy)-5,6,6a,7,8,9,10,11-octahydro-4-oxa-3,11a,12,14,15-pentaaza-7,10-methanocyclohepta[4,5]cycloocta[1,2,3-de]naphthalen-2-yl)-5-methyl-4-(trifluoromethyl)aniline] were 0.3 to 3 nM and less than 0.3 nM.
Turning to `Cc1nc(N)cc(-c2nc3c4c(nc(OCC5(CN6CCC(=CF)CC6)CC5)nc4c2F)N2C[C@H]4CC[C@H](N4)[C@H]2CCO3)c1C(F)(F)F` [Example 155, 4-((6aR,7S,10R)-1-fluoro-13-((1-((4-(fluoromethylene)piperidin-1-yl)methyl)cyclopropyl)methoxy)-5,6,6a,7,8,9,10,11-octahydro-4-oxa-3,11a,12,14,15-pentaaza-7,10-methanocyclohepta[4,5]cycloocta [1,2,3-de]naphthalen-2-yl)-6-methyl-5-(trifluoromethyl)pyridin-2-amine], the IC50 is 3 to 1000 nM in assay [1] and less than 0.3 nM in assay [2].
`Cc1cc(N)cc(-c2nc3c4c(nc(OCC5(CN6CC=C[C@H]6C)CC5)nc4c2F)N2C[C@H]4CC[C@H](N4)[C@H]2CCO3)c1C(F)(F)F` [Example 160, 3-((6aR,7S,10R)-1-fluoro-13-((1-(((R)-2-methyl-2,5-dihydro-1H-pyrrol-1-yl)methyl)cyclopropyl)methoxy)-5,6,6a,7,8,9,10,11-octahydro-4-oxa-3,11a,12,14,15-pentaaza-7,10-methanocyclohepta[4,5]cycloocta[1,2,3-de]naphthalen-2-yl)-5-methyl-4-(trifluoromethyl)aniline]: the 50% inhibitory concentration (IC50) in assay [1] is 3 to 1000 nM; in assay [2], less than 0.3 nM.
Taken in the same sequence, the figures for `C=C1CN2C[C@H](F)C[C@]2(COc2nc3c4c(nc(-c5cc(N)cc(C)c5C(F)(F)F)c(F)c4n2)OCC[C@@H]2[C@@H]4CC[C@H](CN32)N4)C1` [Example 210, 3-((6aR,7S,10R)-1-fluoro-13-(((2R,7aS)-2-fluoro-6-methylenetetrahydro-1H-pyrrolizin-7a(5H)-yl)methoxy)-5,6,6a,7,8,9,10,11-octahydro-4-oxa-3,11a,12,14,15-pentaaza-7,10-methanocyclohepta[4,5]cycloocta[1,2,3-de]naphthalen-2-yl)-5-methyl-4-(trifluoromethyl)aniline] were 3 to 1000 nM and less than 0.3 nM.
For the compound `Cc1cc(N)cc(-c2nc3c4c(nc(OCC5(CN6CC=CC6CO)CC5)nc4c2F)N2C[C@H]4CC[C@H](N4)[C@H]2CCO3)c1C(F)(F)F` (stereo partly drawn) [Example 161, (1-((1-((((6aR,7S,10R)-2-(5-amino-3-methyl-2-(trifluoromethyl)phenyl)-1-fluoro-5,6,6a,7,8,9,10,11-octahydro-4-oxa-3,11a,12,14,15-pentaaza-7,10-methanocyclohepta[4,5]cycloocta[1,2,3-de]naphthalen-13-yl)oxy)methyl)cyclopropyl)methyl)-2,5-dihydro-1H-pyrrol-2-yl)methanol], the concentration for half-maximal inhibition (IC50) in assay [1] is 3 to 1000 nM; in assay [2], less than 0.3 nM.
As to `Cc1cc(N)cc(-c2nc3c4c(nc(OCC5(CN6CC(C)(O)C6)CC5)nc4c2F)N2C[C@H]4CC[C@H](N4)[C@H]2CCO3)c1C(F)(F)F` [Example 81, 1-((1-((((6aR,7S, 10R)-2-(5-amino-3-methyl-2-(trifluoromethyl)phenyl)-1-fluoro-5,6,6a,7,8,9,10,11-octahydro-4-oxa-3,11a,12,14,15-pentaaza-7,10-methanocyclohepta [4,5]cycloocta [1,2,3-de]naphthalen-13-yl)oxy)methyl)cyclopropyl)methyl)-3-methylazetidin-3-ol], the IC50 in assay [1] was 3 to 1000 nM; in assay [2], less than 0.3 nM.
Regarding `Cc1cc(N)cc(-c2nc3c4c(nc(OCC5(CN6[C@@H]7CC[C@H]6COC7)CC5)nc4c2F)N2C[C@H]4CC[C@H](N4)[C@H]2CCO3)c1C(F)(F)F` [Example 107, 3-((6aR,7S,10R)-13-((1-(((1R,5S)-3-oxa-8-azabicyclo [3.2.1]octan-8-yl)methyl)cyclopropyl)methoxy)-1-fluoro-5,6,6a,7,8,9,10,11-octahydro-4-oxa-3,11a,12,14,15-pentaaza-7,10-methanocyclohepta [4,5]cycloocta [1,2,3-de]naphthalen-2-yl)-5-methyl-4-(trifluoromethyl)aniline], the half-inhibitory concentration (IC50) in assay [1] was 3 to 1000 nM; in assay [2], less than 0.3 nM.
On to `Cc1cc(N)cc(-c2nc3c4c(nc(OCC5(CN6C[C@H]7C[C@@H]6CO7)CC5)nc4c2F)N2C[C@H]4CC[C@H](N4)[C@H]2CCO3)c1C(F)(F)F` [Example 65, 3-((6aR,7S,10R)-13-((1-(((1R,4R)-2-oxa-5-azabicyclo[2.2.1]heptan-5-yl)methyl)cyclopropyl)methoxy)-1-fluoro-5,6,6a,7,8,9,10,11-octahydro-4-oxa-3,11a,12,14,15-pentaaza-7,10-methanocyclohepta[4,5]cycloocta [1,2,3-de]naphthalen-2-yl)-5-methyl-4-(trifluoromethyl)aniline], for which the IC50 in assay [1] is 3 to 1000 nM; in assay [2], less than 0.3 nM.

Usually IC50 stands for the concentration that gives 50% inhibition.
